According to ChEMBL document CHEMBL1201862, “PubChem BioAssay data set” (2004):
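How tested: cells in 96-well plates exposed to compound for 48 hours at five concentrations. Abbreviation: GI50, concentration required for 50% inhibition of growth.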 Calls of active or inactive are those of the source. No stated cut-off is given here; in the data, active = GI50 up to about 1.1 µM and inactive = higher.

Key:
Experiment in all cases: DTP human tumour cell line panel, 48 h
786-0 = test system: 786-0
A498 = test system: A498
A549 = test system: A549
ACHN = test system: ACHN
BT-549 = test system: BT-549
CAKI-1 = test system: CAKI-1
CCRF-CEM = test system: CCRF-CEM
COLO 205 = test system: COLO 205
DU-145 = test system: DU-145
EKVX = test system: EKVX
HCC 2998 = test system: HCC 2998
HCT-116 = test system: HCT-116
HCT-15 = test system: HCT-15
HL-60 = test system: HL-60
HOP-62 = test system: HOP-62
HOP-92 = test system: HOP-92
HT-29 = test system: HT-29
Hs-578T = test system: Hs-578T
IGROV-1 = test system: IGROV-1
K562 = test system: K562
LOX IMVI = test system: LOX IMVI
M14 = test system: M14
MCF7 = test system: MCF7
MDA-MB-231 = test system: MDA-MB-231
MDA-MB-435 = test system: MDA-MB-435
MDA-N = test system: MDA-N
MOLT-4 = test system: MOLT-4
Malme-3M = test system: Malme-3M
NCI-H23 = test system: NCI-H23
NCI-H460 = test system: NCI-H460
NCI-H522 = test system: NCI-H522
NCI/ADR-RES = test system: NCI/ADR-RES
OVCAR-3 = test system: OVCAR-3
OVCAR-5 = test system: OVCAR-5
OVCAR-8 = test system: OVCAR-8
PC-3 = test system: PC-3
RPMI-8226 = test system: RPMI-8226
RXF 393 = test system: RXF 393
SF-268 = test system: SF-268
SF-295 = test system: SF-295
SF-539 = test system: SF-539
SK-MEL-28 = test system: SK-MEL-28
SK-MEL-5 = test system: SK-MEL-5
SN12C = test system: SN12C
SNB-19 = test system: SNB-19
SNB-75 = test system: SNB-75
SR = test system: SR
SW-620 = test system: SW-620
T47D = test system: T47D
TK-10 = test system: TK-10
UACC-257 = test system: UACC-257
UACC-62 = test system: UACC-62

O=c1[nH]c2ccc(C(F)(F)F)cc2nc1-c1ccccc1
GI50 (786-0): > 100 µM (inactive) | GI50 (A498): > 100 µM (inactive) | GI50 (A549): > 100 µM (inactive) | GI50 (ACHN): > 100 µM (inactive) | GI50 (BT-549): > 100 µM (inactive) | GI50 (CAKI-1): > 100 µM (inactive) | GI50 (CCRF-CEM): > 100 µM (inactive) | GI50 (COLO 205): > 100 µM (inactive) | GI50 (DU-145): > 100 µM (inactive) | GI50 (EKVX): > 100 µM (inactive) | GI50 (HCC 2998): > 100 µM (inactive) | GI50 (HCT-116): > 100 µM (inactive) | GI50 (HCT-15): > 100 µM | GI50 (HL-60): > 100 µM (inactive) | GI50 (HOP-62): > 100 µM (inactive) | GI50 (HOP-92): > 100 µM (inactive) | GI50 (HT-29): > 100 µM (inactive) | GI50 (Hs-578T): 59.6 µM (inactive) | GI50 (IGROV-1): > 100 µM (inactive) | GI50 (K562): > 100 µM (inactive) | GI50 (LOX IMVI): > 100 µM (inactive) | GI50 (M14): > 100 µM (inactive) | GI50 (MCF7): > 100 µM (inactive) | GI50 (MDA-MB-231): > 100 µM (inactive) | GI50 (MDA-MB-435): > 100 µM (inactive) | GI50 (MDA-N): > 100 µM (inactive) | GI50 (MOLT-4): > 100 µM (inactive) | GI50 (Malme-3M): > 100 µM (inactive) | GI50 (NCI-H23): > 100 µM (inactive) | GI50 (NCI-H460): > 100 µM (inactive) | GI50 (NCI-H522): > 100 µM (inactive) | GI50 (NCI/ADR-RES): > 100 µM (inactive) | GI50 (OVCAR-3): > 100 µM (inactive) | GI50 (OVCAR-5): > 100 µM (inactive) | GI50 (OVCAR-8): 52.4 µM (inactive) | GI50 (PC-3): > 100 µM (inactive) | GI50 (RPMI-8226): > 100 µM (inactive) | GI50 (RXF 393): > 100 µM (inactive) | GI50 (SF-268): > 100 µM (inactive) | GI50 (SF-295): > 100 µM (inactive) | GI50 (SF-539): > 100 µM (inactive) | GI50 (SK-MEL-28): > 100 µM (inactive) | GI50 (SK-MEL-5): > 100 µM (inactive) | GI50 (SN12C): > 100 µM (inactive) | GI50 (SNB-19): > 100 µM (inactive) | GI50 (SNB-75): > 100 µM (inactive) | GI50 (SR): 88.3 µM (inactive) | GI50 (SW-620): > 100 µM (inactive) | GI50 (T47D): > 100 µM (inactive) | GI50 (TK-10): > 100 µM (inactive) | GI50 (UACC-257): > 100 µM (inactive) | GI50 (UACC-62): > 100 µM (inactive)
